# From publication PMC12469269, “Investigating SMR Peptide Interactions with Breast Cancer-Associated Proteins” (International Journal of Molecular Sciences, 2025)
# Tested on: Mortalin (Grp-75)
# Experiment: Co-immunoprecipitation / Western blot, Mortalin
# Assay type: binding, human
# Settings: MDA-MB-231, MCF-7, BT474 lysates; anti-FLAG M2 resin, 4 °C overnight
# Description: MDA-MB-231, MCF-7, and BT474 BC cells were grown in RPMI 1640 medium containing 10% FBS at 37 °C in a T-75 tissue culture flask and collected via centrifugation at 1000× g for 20 min at 4 °C. The cell pellet was resuspended in 1 mL of 1X PBS and transferred to a 1.5 mL Eppendorf tube. Following microcentrifugation at 1000× g for 1 min, the pellet was resuspended in 1 mL of α-FLAG Lysis buffer through gentle pipetting (50 mM Tris HCl, pH 7.4; 150 mM sodium chloride [NaCl]; 1 mM EDTA; and 1% Triton X-100, with 1 mM phenylmethyl sulfonyl fluoride [PMSF] and 10 µL/mL Protease Inhibitor Cocktail with mammalian cell and tissue extracts [PIC; Sigma-Aldrich] added immediately before use). The suspension was differentially microcentrifuged at 2000× g for 5 min and at 13,000× g for 10 min to pellet the cell debris and DNA, respectively, and the supernatant (hereafter referred to as the Lysate) was collected. In total, 1 milligram of Lysate protein and 1 milligram of the SMRwt or SMRmut peptide were added to 20 µL of Anti-FLAG® M2 Affinity Gel (resin; Sigma). […]
# Cell proteins were analyzed using Western blot analysis, as described previously. […] Protein bands were detected using Western blotting Luminol Reagent (Santa Cruz Biotechnology, Inc., Santa Cruz, CA, USA). […]
substance,measurement,value
"^66Ala-Gly-Phe-Pro-Val^70 [SMRmut, 5-mer negative control, Val66 changed to Ala]","co-immunoprecipitation with Mortalin, in words","not SMRmut, co-immunoprecipitated with Mortalin"
